Results as given in patent US8119692B2 (priority 2007, dated 2012).

Target: Lethal factor protease (Bacillus anthracis, UniProt P15917)
Assay: biochemical
Settings: LF (FRET) Ki^app

Sequence of Lethal factor protease (P15917 34-809 limits assumed): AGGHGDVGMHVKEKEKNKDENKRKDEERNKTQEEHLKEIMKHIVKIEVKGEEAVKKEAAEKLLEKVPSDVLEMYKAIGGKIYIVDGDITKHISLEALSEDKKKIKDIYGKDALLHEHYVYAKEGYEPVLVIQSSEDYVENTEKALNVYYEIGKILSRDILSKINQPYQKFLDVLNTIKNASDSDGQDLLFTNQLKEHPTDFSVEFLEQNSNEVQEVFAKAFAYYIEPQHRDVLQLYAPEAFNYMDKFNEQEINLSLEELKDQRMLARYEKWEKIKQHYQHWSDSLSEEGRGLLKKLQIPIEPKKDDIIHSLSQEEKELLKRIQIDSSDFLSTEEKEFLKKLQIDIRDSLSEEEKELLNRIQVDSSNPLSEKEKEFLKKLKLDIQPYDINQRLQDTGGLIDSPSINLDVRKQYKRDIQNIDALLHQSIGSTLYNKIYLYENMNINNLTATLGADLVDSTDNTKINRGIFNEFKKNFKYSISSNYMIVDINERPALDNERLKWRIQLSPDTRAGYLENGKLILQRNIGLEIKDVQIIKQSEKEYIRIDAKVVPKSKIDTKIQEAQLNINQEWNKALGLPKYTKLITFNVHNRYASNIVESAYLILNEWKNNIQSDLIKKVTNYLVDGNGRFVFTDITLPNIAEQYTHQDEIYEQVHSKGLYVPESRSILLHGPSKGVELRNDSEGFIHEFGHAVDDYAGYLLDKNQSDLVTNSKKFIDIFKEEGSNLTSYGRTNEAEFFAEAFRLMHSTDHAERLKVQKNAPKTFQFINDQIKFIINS

| Compound | Ki [µM] |
| --- | --- |
| CO[C@H](C[C@H](CCN1CCN(Cc2ccc(F)c(C)c2)CC1)C(=O)NO)c1ccc(F)cc1 [Compound 167960, (2S,4R)-2-(2-(4-(4-fluoro-3-methylbenzyl)piperazin-1-yl)ethyl)-4-(4-fluorophenyl)-N-hydroxy-4-methoxybutanamide] | 0.97 |
| COC(CCC(=O)NO)c1ccc(F)cc1 (centres unmarked) [Compound 167157, 4-(4-fluorophenyl)-N-hydroxy-4-methoxybutanamide] | 11.7 |
